The values below come from patent publication US20070105892A1, “Amidino compounds as cysteine protease inhibitors” (AXYS Pharmaceuticals, Inc., priority 2003, published 2007).

Compound `CCc1noc(C(=O)[C@H](CC)NC(=O)[C@H](CC2(C)CCCC2)NC2=NS(=O)(=O)c3ccccc32)n1` [Example 1] registered a melting point of 202 to 204 °C.

Broadly, the melting point is the temperature of the solid-liquid transition.
